Assay results as given in US9994614B2, “N-methyl-D-aspartate receptor modulators and methods of making and using same” (Naurex, Inc., priority 2014, dated 2018).
Non-standard residues stand in square brackets, D forms with d. Residues, ends and D or L forms follow the SMILES beside them. Hyp = O=C(O)[C@@H]1C[C@@H](O)CN1

What was measured:
Format in all cases: biochemical
NR2B = biological target: T1, NR2B (Rattus norvegicus, UniProt Q00960); assay: [3H]MK-801 potentiation assay, NR2B
T1 construct: corresponding to 200 μg of rat cortical membrane extract protein in each reaction; from tissue; host or cells: rat telencephalon (frontal cortex and hippocampus), male Sprague-Dawley
Description: Crude synaptic membranes were prepared using rat telencephalon (frontal cortex and hippocampus tissue) from male Sprague-Dawley rats and extensively washed using procedures modified from the Moskal et al. 2001 Review; The use of antibody engineering to create novel drugs that target N-methyl-D-aspartate receptors, Current Drug Targets, 2(3):331-45. Briefly, tissue that had been stored at −80° C. was homogenized in ice cold 10 mM Tris (pH7.4 at 4° C.) using a Brinkman Polytron and then pelleted by centrifugation at 51,500 g for 20 min. The resulting supernatant was discarded and the membranes were homogenized and washed an additional 3×. […]
Functional glycine site agonist effects were measured using an a [^3H]MK-801 potentiation assay (see Urwyler S, Floersheim P, Roy B L, Koller M. J Med Chem. (2009) 52(16):5093-107). […] Zero levels were determined in the absence of any glycine ligand in the presence of 30 μM dichlorokyneurenic acid. The % maximal [^3H]MK-801 binding was calculated relative to stimulation measured in the presence of 1 mM glycine and 50 μM glutamate. […]
For compounds with relatively low activity (e.g., GLYX-13), the identification and elimination of background glycine levels can have a significant effect on the interpretation of this assay. […] Absolute background percentages are calculated. […]

NR2C [1] = biological target: T2, NR2C (Rattus norvegicus, UniProt Q00961); assay: [3H]MK-801 potentiation assay, NR2C; conditions: relative to stimulation by 1 mM glycine and 50 μM glutamate
T2 construct: corresponding to 200 μg of rat cortical membrane extract protein in each reaction; from tissue; host or cells: rat telencephalon (frontal cortex and hippocampus), male Sprague-Dawley

NR2C [2] = biological target: T3, NR2C (Rattus norvegicus, UniProt P35439+Q00961); assay: [3H]MK-801 potentiation assay, NR2C; conditions: in presence of 50 μM glutamate; read-out: NR2C Potency logM (converted)
T3 construct: corresponding to 200 μg of rat cortical membrane extract protein in each reaction; from tissue; host or cells: rat telencephalon (frontal cortex and hippocampus), male Sprague-Dawley

NR2D = biological target: T4, NR2D (Rattus norvegicus, UniProt Q62645); assay: [3H]MK-801 potentiation assay, NR2D; conditions: for NR2D Activity % max glycine: relative to stimulation by 1 mM glycine and 50 μM glutamate
T4 construct: corresponding to 200 μg of rat cortical membrane extract protein in each reaction; from tissue; host or cells: rat telencephalon (frontal cortex and hippocampus), male Sprague-Dawley

NR2A = biological target: T5, NR2A (Rattus norvegicus, UniProt Q00959); assay: [3H]MK-801 potentiation assay, NR2A
T5 construct: corresponding to 200 μg of rat cortical membrane extract protein in each reaction; from tissue; host or cells: rat telencephalon (frontal cortex and hippocampus), male Sprague-Dawley
Description: Briefly, tissue that had been stored at −80° C. was homogenized in ice cold 10 mM Tris (pH7.4 at 4° C.) using a Brinkman Polytron and then pelleted by centrifugation at 51,500 g for 20 min. The resulting supernatant was discarded and the membranes were homogenized and washed an additional 3×. Pellets were then resuspended in 5 mM EDTA/15 mM Tris (pH7.4) and incubated for 1 hr at 37° C. The membrane suspensions were then pelleted by centrifugation at 51,500 g for 20 min and stored at −80° C. overnight. The pellets were resuspended in 10 mM Tris HCl (pH7.4 at 4° C.) and homogenized and washed an additional 7 times and frozen at […] until assay.
Briefly, 300 μg of membrane extract protein were preincubated for 15 minutes at 25° C. in the presence of a saturating concentration of glutamate (50 μM) and varying concentrations of GLYX-13. […] Zero levels were determined in the absence of any glycine ligand in the presence of 30 μM dichlorokyneurenic acid. […]
The origin of aberrantly high background glycine, or bioactive plastic leachates that act like glycine, can stemrom either the water itself, the LC/MS grade water filter used, or a result of time-dependent leaching from plasticware (including storage tubes, beakers, pipette tips). […] Absolute background percentages are calculated. […]
Samples must wait at least 3 hours prior to quantitation in the scintillation counter. […]

[3] = relative to stimulation by 1 mM glycine and 50 μM glutamate

T4 sequence (Q62645 28-1323, other chains not shown): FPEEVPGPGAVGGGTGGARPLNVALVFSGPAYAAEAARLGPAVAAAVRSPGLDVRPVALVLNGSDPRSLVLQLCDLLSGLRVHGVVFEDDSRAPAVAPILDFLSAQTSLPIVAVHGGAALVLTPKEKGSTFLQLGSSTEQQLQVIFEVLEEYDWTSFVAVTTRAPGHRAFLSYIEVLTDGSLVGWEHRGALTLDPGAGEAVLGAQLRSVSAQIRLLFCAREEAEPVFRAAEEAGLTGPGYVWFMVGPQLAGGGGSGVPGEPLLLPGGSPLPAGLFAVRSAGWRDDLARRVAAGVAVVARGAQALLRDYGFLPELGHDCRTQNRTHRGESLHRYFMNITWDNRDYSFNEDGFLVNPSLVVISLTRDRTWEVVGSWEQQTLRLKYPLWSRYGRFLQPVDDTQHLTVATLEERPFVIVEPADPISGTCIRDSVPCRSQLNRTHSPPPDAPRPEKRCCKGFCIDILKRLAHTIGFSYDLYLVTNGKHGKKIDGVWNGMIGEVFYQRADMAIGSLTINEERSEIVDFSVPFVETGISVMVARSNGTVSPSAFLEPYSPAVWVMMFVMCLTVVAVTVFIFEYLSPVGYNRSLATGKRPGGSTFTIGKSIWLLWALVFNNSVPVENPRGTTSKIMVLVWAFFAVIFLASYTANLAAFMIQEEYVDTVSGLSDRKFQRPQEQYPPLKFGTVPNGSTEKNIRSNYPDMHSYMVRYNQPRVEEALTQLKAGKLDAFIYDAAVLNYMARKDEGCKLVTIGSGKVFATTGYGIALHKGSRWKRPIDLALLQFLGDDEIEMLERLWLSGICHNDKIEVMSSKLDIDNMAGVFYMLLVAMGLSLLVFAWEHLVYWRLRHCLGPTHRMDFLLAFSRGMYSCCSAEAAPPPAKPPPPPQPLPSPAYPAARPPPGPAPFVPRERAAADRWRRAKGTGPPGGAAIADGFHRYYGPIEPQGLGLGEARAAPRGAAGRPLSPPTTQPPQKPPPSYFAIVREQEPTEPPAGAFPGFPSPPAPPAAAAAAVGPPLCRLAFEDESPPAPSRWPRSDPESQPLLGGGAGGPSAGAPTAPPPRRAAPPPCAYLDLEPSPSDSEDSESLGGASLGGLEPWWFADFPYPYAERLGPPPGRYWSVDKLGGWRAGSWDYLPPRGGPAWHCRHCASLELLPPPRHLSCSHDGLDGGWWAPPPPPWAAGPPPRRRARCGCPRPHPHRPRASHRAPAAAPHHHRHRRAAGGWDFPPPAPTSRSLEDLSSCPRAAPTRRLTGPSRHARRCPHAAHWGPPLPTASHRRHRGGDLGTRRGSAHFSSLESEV
T5 sequence (Q00959 23-1464, other chains not shown): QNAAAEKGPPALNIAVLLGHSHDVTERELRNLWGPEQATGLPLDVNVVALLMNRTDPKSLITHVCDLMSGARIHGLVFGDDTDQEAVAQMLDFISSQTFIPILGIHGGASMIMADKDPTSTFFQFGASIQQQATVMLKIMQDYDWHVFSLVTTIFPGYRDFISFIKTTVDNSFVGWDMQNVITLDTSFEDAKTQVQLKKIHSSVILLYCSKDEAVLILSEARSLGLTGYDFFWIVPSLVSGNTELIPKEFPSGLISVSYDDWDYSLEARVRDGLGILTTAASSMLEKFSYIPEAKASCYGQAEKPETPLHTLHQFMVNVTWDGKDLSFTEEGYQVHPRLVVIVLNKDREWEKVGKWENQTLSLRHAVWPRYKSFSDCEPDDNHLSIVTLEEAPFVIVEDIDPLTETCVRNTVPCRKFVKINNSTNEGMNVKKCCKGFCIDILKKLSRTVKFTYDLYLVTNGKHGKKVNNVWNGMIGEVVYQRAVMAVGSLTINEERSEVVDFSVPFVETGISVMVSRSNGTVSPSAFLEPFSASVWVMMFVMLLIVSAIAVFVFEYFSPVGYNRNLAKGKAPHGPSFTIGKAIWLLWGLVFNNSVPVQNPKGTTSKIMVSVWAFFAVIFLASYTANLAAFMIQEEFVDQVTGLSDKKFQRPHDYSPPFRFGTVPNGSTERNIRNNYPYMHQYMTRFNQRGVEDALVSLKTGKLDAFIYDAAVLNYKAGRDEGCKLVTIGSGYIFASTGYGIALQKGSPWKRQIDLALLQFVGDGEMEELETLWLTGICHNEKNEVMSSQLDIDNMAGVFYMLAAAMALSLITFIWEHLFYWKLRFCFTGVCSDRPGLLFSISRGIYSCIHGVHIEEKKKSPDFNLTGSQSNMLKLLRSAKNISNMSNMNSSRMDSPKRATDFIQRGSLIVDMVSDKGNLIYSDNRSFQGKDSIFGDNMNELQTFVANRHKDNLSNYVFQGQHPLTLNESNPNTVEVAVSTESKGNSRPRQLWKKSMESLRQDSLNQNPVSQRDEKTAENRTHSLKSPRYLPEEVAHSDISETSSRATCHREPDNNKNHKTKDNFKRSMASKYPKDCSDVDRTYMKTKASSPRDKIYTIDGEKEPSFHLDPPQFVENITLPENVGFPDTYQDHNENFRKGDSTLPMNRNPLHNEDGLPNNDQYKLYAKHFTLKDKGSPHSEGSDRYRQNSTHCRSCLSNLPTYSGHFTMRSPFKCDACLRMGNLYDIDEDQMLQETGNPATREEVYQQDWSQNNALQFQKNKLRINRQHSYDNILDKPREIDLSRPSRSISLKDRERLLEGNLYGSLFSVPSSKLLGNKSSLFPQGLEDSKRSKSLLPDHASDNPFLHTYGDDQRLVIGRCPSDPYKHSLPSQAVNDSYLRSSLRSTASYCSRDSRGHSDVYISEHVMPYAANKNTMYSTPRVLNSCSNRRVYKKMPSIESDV
T1 sequence (Q00960 27-1482, other chains not shown): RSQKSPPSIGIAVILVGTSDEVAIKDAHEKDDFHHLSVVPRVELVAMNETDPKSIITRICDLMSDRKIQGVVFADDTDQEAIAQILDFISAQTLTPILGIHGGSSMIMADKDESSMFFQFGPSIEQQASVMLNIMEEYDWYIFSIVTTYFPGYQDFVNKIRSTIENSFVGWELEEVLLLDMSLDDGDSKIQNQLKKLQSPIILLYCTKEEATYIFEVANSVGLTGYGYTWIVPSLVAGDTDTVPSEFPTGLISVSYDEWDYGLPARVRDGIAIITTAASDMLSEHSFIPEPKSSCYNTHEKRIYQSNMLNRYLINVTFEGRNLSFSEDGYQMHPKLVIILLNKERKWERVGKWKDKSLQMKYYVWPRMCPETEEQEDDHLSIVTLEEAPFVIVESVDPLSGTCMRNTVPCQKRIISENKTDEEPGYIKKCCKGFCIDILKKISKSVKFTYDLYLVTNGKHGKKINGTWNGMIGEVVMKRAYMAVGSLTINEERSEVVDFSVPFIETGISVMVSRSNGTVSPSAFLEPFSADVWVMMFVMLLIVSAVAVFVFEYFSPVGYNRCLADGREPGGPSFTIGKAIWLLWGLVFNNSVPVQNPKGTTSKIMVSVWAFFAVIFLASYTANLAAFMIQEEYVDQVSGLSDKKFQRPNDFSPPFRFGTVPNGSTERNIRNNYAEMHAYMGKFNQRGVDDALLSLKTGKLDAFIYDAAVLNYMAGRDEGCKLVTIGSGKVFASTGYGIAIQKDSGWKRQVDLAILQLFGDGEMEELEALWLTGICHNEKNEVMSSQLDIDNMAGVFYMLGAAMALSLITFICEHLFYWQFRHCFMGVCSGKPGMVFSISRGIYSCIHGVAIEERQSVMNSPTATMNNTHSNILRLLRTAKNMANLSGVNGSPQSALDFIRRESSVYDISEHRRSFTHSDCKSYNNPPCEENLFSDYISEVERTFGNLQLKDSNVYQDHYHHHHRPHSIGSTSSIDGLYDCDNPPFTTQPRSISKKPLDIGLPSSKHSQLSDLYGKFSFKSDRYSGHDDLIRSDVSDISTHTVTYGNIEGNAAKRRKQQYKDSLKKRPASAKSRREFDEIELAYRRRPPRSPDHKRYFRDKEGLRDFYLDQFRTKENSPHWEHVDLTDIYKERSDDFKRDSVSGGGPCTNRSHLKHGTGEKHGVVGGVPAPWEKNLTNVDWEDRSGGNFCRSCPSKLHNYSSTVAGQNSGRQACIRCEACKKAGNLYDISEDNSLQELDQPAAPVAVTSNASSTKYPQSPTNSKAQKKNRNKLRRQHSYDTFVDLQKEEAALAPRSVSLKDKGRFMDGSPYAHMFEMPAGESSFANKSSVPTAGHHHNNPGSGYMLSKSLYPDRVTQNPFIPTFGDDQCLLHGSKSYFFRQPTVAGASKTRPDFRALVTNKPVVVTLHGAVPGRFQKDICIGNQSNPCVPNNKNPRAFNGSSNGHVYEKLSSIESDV

Row | NR2B Potency logM (NR2B; in presence of 50 μM glutamate) | NR2B Activity % max glycine (NR2B; [3]) | NR2C Activity % max glycine (NR2C [1]) | EC50 (NR2C [2]) | EC50 (NR2D; in presence of 50 μM glutamate, read-out: NR2D Potency logM (converted)) | Structure (SMILES) | NR2D Activity % max glycine (NR2D) | EC50 (NR2A; in presence of 50 μM glutamate, read-out: NR2A Potency logM (converted)) | NR2A Activity % max glycine (NR2A; [3]) | NR2D Potency logM (NR2D; in presence of 50 μM glutamate)
1 | −13.86 logM | 29.53 % max glycine | 38.75 % max glycine | 2.09 pM | 2.34 pM | C[C@@H](O)[C@H](NC(=O)[C@H](Cc1c[nH]c2ccccc12)NC(=O)[C@@H]1C[C@@H](O)CN1)C(N)=O [Compound A-5] (H-[Hyp]-Trp-Thr-NH2) | 41.34 % max glycine | – | – | –
2 | – | – | – | – | – | CC(=O)OC1C[C@@H](C(=O)N[C@@H](Cc2c[nH]c3ccccc23)C(=O)N[C@H](C(N)=O)[C@@H](C)O)N(C(=O)[C@@H](N)[C@@H](C)O)C1 (stereo partly shown) [Compound A-3] | 35.17 % max glycine | 17.4 pM | 58.25 % max glycine | −13.68 logM
